Experimental data published in patent EP3782997A1, “FUSED PYRIMIDINE COMPOUNDS AND PHARMACEUTICAL COMPOSITIONS THEREOF FOR THE TREATMENT OF FIBROTIC DISEASES” (Galapagos N.V., priority 2019, dated 2021).

Each molecule was assayed against hENPP2 (Homo sapiens, UniProt Q13822) (assay: Human ENPP2 (hENPP2) biochemical assay using LPC as substrate). Settings: 150 µM LPC (palmitoyl 16:0), 37°C for 30 min.
Outline: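 Enzyme at 1 or 3 µg/mL final in Tris-HCl pH 8.5, NaCl, KCl, CaCl2, fatty-acid-free BSA; reaction started with 150 µM LPC 16:0 (as added), 30 min at 37°C. Released choline developed with choline oxidase/peroxidase/TOOS/4-aminoantipyrine plus EGTA stop, read at 555 nm after 30 min; 1/3 dilutions from 50 µM give IC50.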
In the case of `Cc1cncc(Nc2ncc3c(n2)CN(C2CCN(C(=O)c4ccc5[nH]nnc5c4)C2)C3)c1` (stereo not drawn) [compound 44, 1H-benzotriazol-5-yl-[3-[2-[(5-methyl-3-pyridyl)amino]-5,7-dihydropyrrolo[3,4-d]pyrimidin-6-yl]pyrrolidin-1-yl]methanone], the IC50 is reported as over 1000 nM.
For `Cc1cncc(Nc2ncc3c(n2)CN(C2CCN(C(=O)c4ccc(S(N)(=O)=O)cc4)C2)C3)c1` (stereo not drawn) [compound 45, 4-[3-[2-[(5-methyl-3-pyridyl)amino]-5,7-dihydropyrrolo[3,4-d]pyrimidin-6-yl]pyrrolidine-1-carbonyl]benzenesulfonamide], the IC50 was over 1000 nM.
In the case of `Cn1nc(C(C)(C)C)cc1Nc1ncc2c(n1)CN(C1CN(C(=O)c3ccc4[nH]nnc4c3)C1)C2` [compound 46, 1H-benzotriazol-5-yl-[3-[2-[(5-tert-butyl-2-methyl-pyrazol-3-yl)amino]-5,7-dihydropyrrolo[3,4-d]pyrimidin-6-yl]azetidin-1-yl]methanone], the IC50 is reported as over 1000 nM.
With `Cc1cncc(Nc2ncc3c(n2)CN(C2CCN(C(=O)c4ccc(S(N)(=O)=O)cc4)CC2)C3)c1` [compound 47, 4-[4-[2-[(5-methyl-3-pyridyl)amino]-5,7-dihydropyrrolo[3,4-d]pyrimidin-6-yl]piperidine-1-carbonyl]benzenesulfonamide] the IC50 was over 1000 nM.
For `Cc1cncc(Nc2ncc3c(n2)CN(C2CN(C(=O)c4ccc(S(N)(=O)=O)cc4)C2)C3)c1` [compound 48, 4-[3-[2-[(5-methyl-3-pyridyl)amino]-5,7-dihydropyrrolo[3,4-d]pyrimidin-6-yl]azetidine-1-carbonyl]benzenesulfonamide], the IC50 was over 1000 nM.
In the case of `Cc1cncc(Nc2ncc3c(n2)CN(C2CCN(C(=O)c4ccc5[nH]nnc5c4)CC2)C3)c1` [compound 49, 1H-benzotriazol-5-yl-[4-[2-[(5-methyl-3-pyridyl)amino]-5,7-dihydropyrrolo[3,4-d]pyrimidin-6-yl]-1-piperidyl]methanone], the IC50 is reported as 500 to 1000 nM.
`Cn1nc(C(C)(C)C)cc1Nc1ncc2c(n1)CN(C1CCN(C(=O)c3ccc4[nH]nnc4c3)CC1)C2` [compound 50, 1H-benzotriazol-5-yl-[4-[2-[(5-tert-butyl-2-methyl-pyrazol-3-yl)amino]-5,7-dihydropyrrolo[3,4-d]pyrimidin-6-yl]-1-piperidyl]methanone] showed an IC50 of over 1000 nM.
In the case of `Cc1cc(C)nc(Nc2ncc3c(n2)CN(C2CN(C(=O)c4ccc5[nH]nnc5c4)C2)C3)c1` [compound 51, 1H-benzotriazol-5-yl-[3-[2-[(4,6-dimethyl-2-pyridyl)amino]-5,7-dihydropyrrolo[3,4-d]pyrimidin-6-yl]azetidin-1-yl]methanone], the IC50 is reported as 500 to 1000 nM.
In the case of `Cc1cc(C)nc(Nc2ncc3c(n2)CN(C2CN(C(=O)c4ccc5[nH]c(=O)oc5c4)C2)C3)c1` [compound 52, 6-[3-[2-[(4,6-dimethyl-2-pyridyl)amino]-5,7-dihydropyrrolo[3,4-d]pyrimidin-6-yl]azetidine-1-carbonyl]-3H-1,3-benzoxazol-2-one], the IC50 is reported as 100 to 500 nM.
With `O=C(c1ccc2[nH]nnc2c1)N1CC(N2Cc3cnc(Nc4cc(F)cc(F)c4)nc3C2)C1` [compound 53, 1H-benzotriazol-5-yl-[3-[2-(3,5-difluoroanilino)-5,7-dihydropyrrolo[3,4-d]pyrimidin-6-yl]azetidin-1-yl]methanone] the IC50 was 100 to 500 nM.
`O=C(c1ccc2[nH]nnc2c1)N1CCC(N2Cc3cnc(Nc4cc(F)cc(F)c4)nc3C2)CC1` [compound 54, 1H-benzotriazol-5-yl-[4-[2-(3,5-difluoroanilino)-5,7-dihydropyrrolo[3,4-d]pyrimidin-6-yl]-1-piperidyl]methanone] was tested, and the IC50 was 100 to 500 nM.
`O=C(c1ccc2[nH]c(=O)oc2c1)N1CCC(N2Cc3cnc(Nc4cc(F)cc(F)c4)nc3C2)CC1` [compound 55, 6-[4-[2-(3,5-difluoroanilino)-5,7-dihydropyrrolo[3,4-d]pyrimidin-6-yl]piperidine-1-carbonyl]-3H-1,3-benzoxazol-2-one] showed an IC50 of 100 to 500 nM.
Molecule `Cc1cc(C)nc(Nc2ncc3c(n2)CN(C2CCN(C(=O)c4ccc5nn[nH]c5c4)CC2)C3)c1` [compound 56, 3H-benzotriazol-5-yl-[4-[2-[(4,6-dimethyl-2-pyridyl)amino]-5,7-dihydropyrrolo [3,4-d]pyrimidin-6-yl]-1-piperidyl]methanone] has an IC50 of over 1000 nM.
`O=C(c1ccc2[nH]c(=O)oc2c1)N1CC(N2Cc3cnc(Nc4cc(F)cc(F)c4)nc3C2)C1` [compound 57, 6-[3-[2-(3,5-difluoroanilino)-5,7-dihydropyrrolo[3,4-d]pyrimidin-6-yl]azetidine-1-carbonyl]-3H-1,3-benzoxazol-2-one] was tested, and the IC50 was 0.01 to 100 nM.
Molecule `N#Cc1ccc(Nc2ncc3c(n2)CN(C2CN(C(=O)c4ccc5[nH]nnc5c4)C2)C3)cc1` [compound 58, 4-[[6-[1-(1H-benzotriazole-5-carbonyl)azetidin-3-yl]-5,7-dihydropyrrolo[3,4-d]pyrimidin-2-yl]amino]benzonitrile] has an IC50 of 0.01 to 100 nM.
`N#Cc1ccc(Nc2ncc3c(n2)CN(C2CCN(C(=O)c4ccc5[nH]nnc5c4)CC2)C3)cc1` [compound 59, 4-[[6-[1-(1H-benzotriazole-5-carbonyl)-4-piperidyl]-5,7-dihydropyrrolo[3,4-d]pyrimidin-2-yl]amino]benzonitrile] was tested, and the IC50 was 0.01 to 100 nM.
For `Cc1cc(C)cc(Nc2ncc3c(n2)CN(C2CCN(C(=O)c4ccc5[nH]c(=S)oc5c4)CC2)C3)c1` [compound 61, [4-[2-(3,5-dimethylanilino)-5,7-dihydropyrrolo[3,4-d]pyrimidin-6-yl]-1-piperidyl]-(2-thioxo-3H-1,3-benzoxazol-6-yl)methanone], the IC50 was 0.01 to 100 nM.
Work on `Cc1cc(C)cc(Nc2ncc3c(n2)CN(C2CN(C(=O)c4ccc5[nH]c(=S)oc5c4)C2)C3)c1` [compound 62, [3-[2-(3,5-dimethylanilino)-5,7-dihydropyrrolo[3,4-d]pyrimidin-6-yl]azetidin-1-yl]-(2-thioxo-3H-1,3-benzoxazol-6-yl)methanone] yielded an IC50 of 0.01 to 100 nM.
`Cc1cc(C)cc(Nc2ncc3c(n2)CN(C2CC4CC2CN4C(=O)c2ccc4[nH]nnc4c2)C3)c1` (stereo not drawn) [compound 63, 1H-benzotriazol-5-yl-[5-[2-(3,5-dimethylanilino)-5,7-dihydropyrrolo[3,4-d]pyrimidin-6-yl]-2-azabicyclo[2.2.1]heptan-2-yl]methanone] showed an IC50 of over 1000 nM.
Molecule `Cc1cc(C)cc(Nc2ncc3c(n2)CN(C2CC4CC2CN4C(=O)c2ccc4[nH]c(=O)oc4c2)C3)c1` (stereo not drawn) [compound 64, 6-[5-[2-(3,5-dimethylanilino)-5,7-dihydropyrrolo[3,4-d]pyrimidin-6-yl]-2-azabicyclo[2.2.1]heptane-2-carbonyl]-3H-1,3-benzoxazol-2-one] has an IC50 of over 1000 nM.
`Cc1cc(C)cc(Nc2ncc3c(n2)CN(C2CCN(C(=O)c4cnc5[nH]nnc5c4)CC2C)C3)c1` (stereo not drawn) [compound 65, [4-[2-(3,5-dimethylanilino)-5,7-dihydropyrrolo[3,4-d]pyrimidin-6-yl]-3-methyl-1-piperidyl]-(3H-triazolo[4,5-b]pyridin-6-yl)methanone] showed an IC50 of 100 to 500 nM.
With `Cc1cc(C)cc(Nc2ncc3c(n2)CN(C2CC(C)N(C(=O)c4ccc5[nH]nnc5c4)C(C)C2)C3)c1` (stereo not drawn) [compound 68, 1H-benzotriazol-5-yl-[4-[2-(3,5-dimethylanilino)-5,7-dihydropyrrolo[3,4-d]pyrimidin-6-yl]-2,6-dimethyl-1-piperidyl]methanone] the IC50 was over 1000 nM.
`Cc1cc(C)cc(Nc2ncc3c(n2)CN(C2CCN(C(=O)c4ccc5[nH]c(=O)sc5c4)CC2)C3)c1` [compound 69, 6-[4-[2-(3,5-dimethylanilino)-5,7-dihydropyrrolo[3,4-d]pyrimidin-6-yl]piperidine-1-carbonyl]-3H-1,3-benzothiazol-2-one] showed an IC50 of 0.01 to 100 nM.
In the case of `Cc1cc(C)cc(Nc2ncc3c(n2)CN(C2CN(C(=O)c4ccc5[nH]c(=O)sc5c4)C2)C3)c1` [compound 70, 6-[3-[2-(3,5-dimethylanilino)-5,7-dihydropyrrolo[3,4-d]pyrimidin-6-yl]azetidine-1-carbonyl]-3H-1,3-benzothiazol-2-one], the IC50 is reported as 0.01 to 100 nM.
Work on `Cc1cc(C)cc(Nc2ncc3c(n2)CN(C2CCN(C(=O)c4ccc(NS(C)(=O)=O)cc4)CC2)C3)c1` [compound 72, N-[4-[4-[2-(3,5-dimethylanilino)-5,7-dihydropyrrolo[3,4-d]pyrimidin-6-yl]piperidine-1-carbonyl]phenyl]methanesulfonamide] yielded an IC50 of over 1000 nM.
Work on `Cc1cc(C)cc(Nc2ncc3c(n2)CN([C@@H]2CCN(C(=O)c4ccc5[nH]nnc5c4)[C@H](C)C2)C3)c1` [compound 73, 1H-benzotriazol-5-yl-[(2R,4R)-4-[2-(3,5-dimethylanilino)-5,7-dihydropyrrolo[3,4-d]pyrimidin-6-yl]-2-methyl-1-piperidyl]methanone] yielded an IC50 of 0.01 to 100 nM.
With `Cc1cc(C)cc(Nc2ncc3c(n2)CN([C@H]2CCN(C(=O)c4ccc5[nH]nnc5c4)[C@@H](C)C2)C3)c1` [compound 74, 1H-benzotriazol-5-yl-[(2S,4S)-4-[2-(3,5-dimethylanilino)-5,7-dihydropyrrolo[3,4-d]pyrimidin-6-yl]-2-methyl-1-piperidyl]methanone] the IC50 was 0.01 to 100 nM.
In the case of `Cc1cc(C)cc(Nc2ncc3c(n2)CCCN(C2CCN(C(=O)c4ccc5nn[nH]c5c4)CC2)C3)c1` [compound 75, 3H-benzotriazol-5-yl-[4-[2-(3,5-dimethylanilino)-5,7,8,9-tetrahydropyrimido[5,4-c]azepin-6-yl]-1-piperidyl]methanone], the IC50 is reported as over 1000 nM.
`Cc1cc(C)cc(Nc2ncc3c(n2)CN(C2CN(C(=O)c4ccc5nn[nH]c5c4)CC2C)C3)c1` (stereo not drawn) [compound 77, 3H-benzotriazol-5-yl-[3-[2-(3,5-dimethylanilino)-5,7-dihydropyrrolo[3,4-d]pyrimidin-6-yl]-4-methyl-pyrrolidin-1-yl]methanone] gave an IC50 of 100 to 500 nM.
`Cc1cc(C)cc(Nc2ncc3c(n2)CN(C2[C@@H]4C[C@H]2CN(C(=O)c2ccc5[nH]nnc5c2)C4)C3)c1` (stereo partly drawn) [compound 78, 1H-benzotriazol-5-yl-[(1R,5S)-6-[2-(3,5-dimethylanilino)-5,7-dihydropyrrolo[3,4-d]pyrimidin-6-yl]-3-azabicyclo[3.1.1]heptan-3-yl]methanone] was tested, and the IC50 was 0.01 to 100 nM.
